In patent US20230303569A1, “HETEROCYCLIC COMPOUNDS AS THERAPEUTIC AGENTS” (Arisan Therapeutics Inc., priority 2021, published 2023):
Read-outs that look alike come from different tables or passages of the source.

Experiments:
[1] = biological target: T1, human Nav1.6 (Homo sapiens, UniProt Q9UQD0); assay: Two pulse assay protocol, Nav1.6; type: cell-based; settings: peak current
T1 construct: host or cells: HEK293
Method: (§1) In vitro Na+ Current Inhibition Assays were performed by Eurofins Discovery (St Charles, MO). All compound functional activity determinations were determined through electrophysiological analyses of Na+ currents in HEK293 cells expressing a stably transfected Na+ channel (human Nav1.1, 1.2, 1.3, 1.5, 1.6, 1.7, or 1.8). After harvesting with Accutase cells are maintained in serum free medium at room temperature prior to electrophysiological recording utilizing the QPatch HT automated whole-cell patch-clamp platform (Sophion Bioscience, Woburn MA). Stock solution aliquots of the test compound are prepared in DMSO at 300× the final assay concentrations, and stored at −20° C. until the day of assay. On the day of the assay, an aliquot of the stock solution is thawed and diluted into external solution (137 mM NaCl, 4 mM KCl, 1 mM MgCl2, 1.8 mM CaCl2, 10 mM HEPES, 10 mM Glucose (pH 7.3, titrated with 10M NaOH) to make final test concentrations. A final concentration of 0.33% DMSO is maintained for each concentration of the assay compounds. Internal solution for recordings of Na+ consist consists of 100 mM CsF, 45 mM CsCl, 5 mM NaCl, 10 mM HEPES, 5 mM EGTA (pH 7.3, titrated with 1M CsOH).
(§2) Two pulse assay protocol for human Nav1.1, 1.2, 1.3, 1.5, 1.6, 1.7, and 1.8 channels. Mammalian cultured cells expressing the indicated human Nav1.1, 1.2, 1.3, 1.5, 1.6, 1.7 or 1.8 channels were assayed using the The QPatch HT (Sophion Bioscience, Woburn MA) automated system with an intracellular solution (mM) of 100 CsF, 45 CsCl, 5 NaCl, 10 HEPES, 5 EGTA (pH 7.3, titrated with 1M CsOH) and extracellular solution (mM) of 137 NaCl, 4 KCl, 1 MgCl2, 1.8 CaCl2, 10 HEPES, 10 Glucose (pH 7.3, titrated with 10M NaOH). Onset and steady state block of the sodium channel was measured using a pulse pattern, repeated every 20 seconds (s) from a holding potential of −120 mV for 100 ms, and then pulsed to 0 mV for 500 ms to inactivate the Na channels and facilitate inactivated state-dependent binding of the test compounds. The cell membranes were then stepped back to −120 mV for 10 ms to recover from inactivation into resting or closed state (channels with test compound bound to them will not recover from inactivation and will not open) before stepping to 0 mV for 50 ms (pulse 2) to measure Na channels that are available to open. Peak current was measured during the step to 0 mV at pulse 1 and 2 to measure tonic and state-dependent inhibition. Compound activities were assessed by dividing post current amplitude (at the end of each five (5) minute compound application) by the vehicle control amplitude and the mean calculated for each compound concentration. Tetracaine was used as a positive control and was tested concurrently with the test compounds. Current amplitudes in excess of 200 pA at the control stage were analyzed. The amplitude of the current was calculated by measuring the difference between the peak inward current on stepping to 0 mV (i.e. peak of the current) and remaining current at the end of the step. The current was assessed in vehicle control conditions and then at the end of each five (5) minute compound application.

[2] = biological target: T2, human Nav1.8 (Homo sapiens, UniProt Q9Y5Y9); assay: Two pulse assay protocol, Nav1.8; type: cell-based; settings: peak current
T2 construct: host or cells: HEK293
T2 sequence (Q9Y5Y9 whole entry): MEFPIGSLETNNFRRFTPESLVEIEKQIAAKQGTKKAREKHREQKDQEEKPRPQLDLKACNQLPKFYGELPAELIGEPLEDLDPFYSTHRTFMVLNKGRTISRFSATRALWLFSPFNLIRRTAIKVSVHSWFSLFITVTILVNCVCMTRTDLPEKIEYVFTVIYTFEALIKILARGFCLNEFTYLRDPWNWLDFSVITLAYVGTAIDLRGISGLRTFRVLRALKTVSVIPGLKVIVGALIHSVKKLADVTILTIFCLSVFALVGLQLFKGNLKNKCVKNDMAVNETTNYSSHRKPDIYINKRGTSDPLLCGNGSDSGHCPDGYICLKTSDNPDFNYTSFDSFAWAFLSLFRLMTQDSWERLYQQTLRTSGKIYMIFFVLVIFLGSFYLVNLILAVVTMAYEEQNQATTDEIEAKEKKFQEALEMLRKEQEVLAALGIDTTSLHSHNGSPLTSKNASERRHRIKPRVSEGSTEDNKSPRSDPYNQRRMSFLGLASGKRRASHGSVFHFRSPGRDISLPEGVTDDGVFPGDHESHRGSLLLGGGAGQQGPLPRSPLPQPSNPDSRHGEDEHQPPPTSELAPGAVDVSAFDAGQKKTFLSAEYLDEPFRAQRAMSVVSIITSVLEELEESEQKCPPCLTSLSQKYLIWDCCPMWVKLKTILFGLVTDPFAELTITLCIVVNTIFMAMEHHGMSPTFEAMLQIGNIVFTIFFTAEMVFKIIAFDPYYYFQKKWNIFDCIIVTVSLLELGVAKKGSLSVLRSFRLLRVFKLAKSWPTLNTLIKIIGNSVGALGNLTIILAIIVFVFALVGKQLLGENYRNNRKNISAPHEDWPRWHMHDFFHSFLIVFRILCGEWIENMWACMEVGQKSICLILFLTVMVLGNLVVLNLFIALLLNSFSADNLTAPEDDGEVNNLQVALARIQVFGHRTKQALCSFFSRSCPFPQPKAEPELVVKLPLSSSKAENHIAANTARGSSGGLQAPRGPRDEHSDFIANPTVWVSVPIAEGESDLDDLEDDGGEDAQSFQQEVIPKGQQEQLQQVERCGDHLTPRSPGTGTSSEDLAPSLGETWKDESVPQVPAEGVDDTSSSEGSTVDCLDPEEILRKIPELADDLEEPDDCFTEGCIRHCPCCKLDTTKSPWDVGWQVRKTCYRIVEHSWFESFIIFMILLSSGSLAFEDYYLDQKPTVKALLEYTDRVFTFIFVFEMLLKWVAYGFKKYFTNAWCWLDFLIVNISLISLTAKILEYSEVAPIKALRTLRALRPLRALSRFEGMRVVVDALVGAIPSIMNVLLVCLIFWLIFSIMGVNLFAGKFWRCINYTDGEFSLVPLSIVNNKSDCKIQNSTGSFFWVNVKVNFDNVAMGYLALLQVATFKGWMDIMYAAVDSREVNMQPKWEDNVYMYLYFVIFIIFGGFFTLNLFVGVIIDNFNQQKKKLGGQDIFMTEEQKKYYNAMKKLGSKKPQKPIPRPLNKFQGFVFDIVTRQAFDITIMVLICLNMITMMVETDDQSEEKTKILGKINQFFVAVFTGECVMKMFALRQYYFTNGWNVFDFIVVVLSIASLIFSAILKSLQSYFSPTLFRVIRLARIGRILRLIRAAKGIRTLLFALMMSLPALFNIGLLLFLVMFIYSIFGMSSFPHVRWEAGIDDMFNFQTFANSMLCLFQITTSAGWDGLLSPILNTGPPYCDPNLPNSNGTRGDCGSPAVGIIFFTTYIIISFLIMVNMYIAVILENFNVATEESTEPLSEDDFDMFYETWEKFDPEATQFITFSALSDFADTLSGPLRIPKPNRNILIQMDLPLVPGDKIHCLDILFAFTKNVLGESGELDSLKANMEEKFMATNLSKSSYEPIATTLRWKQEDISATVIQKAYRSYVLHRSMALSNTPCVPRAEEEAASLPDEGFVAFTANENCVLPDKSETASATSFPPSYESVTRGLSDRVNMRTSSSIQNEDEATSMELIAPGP
Method: as §1, §2

[3] = pulse 1 (tonic), read-out: percent inhibition hNav1.6, Pulse 1 (5 uM)
[4] = pulse 2 (state-dependent), read-out: percent inhibition hNav1.6, Pulse 2 (5 uM)
[5] = pulse 1 (tonic), read-out: percent inhibition hNav1.8, Pulse 1 (5 uM)
[6] = pulse 2 (state-dependent), read-out: percent inhibition hNav1.8, Pulse 2 (5 uM)

T1 sequence (Q9UQD0 whole entry): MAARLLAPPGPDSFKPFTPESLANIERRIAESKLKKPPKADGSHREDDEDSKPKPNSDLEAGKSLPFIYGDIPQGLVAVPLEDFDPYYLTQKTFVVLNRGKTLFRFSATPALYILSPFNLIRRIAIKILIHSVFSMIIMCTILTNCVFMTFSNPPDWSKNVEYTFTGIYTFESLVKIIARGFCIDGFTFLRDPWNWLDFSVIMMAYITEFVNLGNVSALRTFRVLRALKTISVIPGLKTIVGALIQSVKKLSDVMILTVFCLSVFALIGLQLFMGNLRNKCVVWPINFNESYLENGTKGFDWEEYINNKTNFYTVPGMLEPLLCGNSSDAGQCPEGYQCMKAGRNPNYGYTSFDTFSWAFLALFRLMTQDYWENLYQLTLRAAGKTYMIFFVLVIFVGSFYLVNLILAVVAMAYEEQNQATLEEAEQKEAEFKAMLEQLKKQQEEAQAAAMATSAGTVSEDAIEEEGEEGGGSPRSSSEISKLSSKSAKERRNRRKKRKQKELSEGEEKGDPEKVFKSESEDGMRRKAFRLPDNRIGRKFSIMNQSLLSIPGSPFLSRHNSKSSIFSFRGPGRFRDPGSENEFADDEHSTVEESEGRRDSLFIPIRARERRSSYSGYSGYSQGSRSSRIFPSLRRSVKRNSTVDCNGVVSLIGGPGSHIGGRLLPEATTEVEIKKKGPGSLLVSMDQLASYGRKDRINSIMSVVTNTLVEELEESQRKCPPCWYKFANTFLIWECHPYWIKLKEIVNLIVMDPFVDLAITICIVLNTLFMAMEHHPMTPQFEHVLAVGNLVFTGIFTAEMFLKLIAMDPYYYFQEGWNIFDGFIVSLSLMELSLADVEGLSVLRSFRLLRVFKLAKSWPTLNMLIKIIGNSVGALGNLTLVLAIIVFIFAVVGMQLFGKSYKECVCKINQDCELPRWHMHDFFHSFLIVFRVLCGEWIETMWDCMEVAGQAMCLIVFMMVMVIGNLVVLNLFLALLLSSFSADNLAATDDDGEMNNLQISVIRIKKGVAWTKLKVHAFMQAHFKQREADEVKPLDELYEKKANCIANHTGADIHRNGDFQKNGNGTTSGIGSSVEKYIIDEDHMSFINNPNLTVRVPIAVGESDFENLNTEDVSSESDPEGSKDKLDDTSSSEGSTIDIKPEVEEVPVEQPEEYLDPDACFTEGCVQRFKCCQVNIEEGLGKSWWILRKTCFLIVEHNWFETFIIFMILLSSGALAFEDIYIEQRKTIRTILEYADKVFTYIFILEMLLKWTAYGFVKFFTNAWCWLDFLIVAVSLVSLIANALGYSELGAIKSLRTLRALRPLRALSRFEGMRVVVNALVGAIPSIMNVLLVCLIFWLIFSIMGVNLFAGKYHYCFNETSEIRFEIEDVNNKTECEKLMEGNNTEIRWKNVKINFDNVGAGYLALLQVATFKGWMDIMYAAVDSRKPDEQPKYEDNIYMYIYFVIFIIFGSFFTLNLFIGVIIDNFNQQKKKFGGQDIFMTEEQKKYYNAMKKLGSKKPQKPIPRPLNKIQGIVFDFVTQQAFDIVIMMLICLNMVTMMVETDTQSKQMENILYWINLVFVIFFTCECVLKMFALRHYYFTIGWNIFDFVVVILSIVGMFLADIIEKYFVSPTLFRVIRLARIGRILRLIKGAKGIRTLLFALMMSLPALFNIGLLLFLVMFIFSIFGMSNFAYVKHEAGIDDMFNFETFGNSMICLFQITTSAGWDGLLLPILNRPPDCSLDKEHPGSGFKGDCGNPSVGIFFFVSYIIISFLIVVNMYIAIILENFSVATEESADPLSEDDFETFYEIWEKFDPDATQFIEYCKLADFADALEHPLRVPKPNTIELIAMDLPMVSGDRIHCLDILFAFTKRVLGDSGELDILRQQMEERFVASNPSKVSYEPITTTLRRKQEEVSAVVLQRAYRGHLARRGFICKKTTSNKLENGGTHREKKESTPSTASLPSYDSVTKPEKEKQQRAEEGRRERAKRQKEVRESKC

| inhibition at 5 µM [1, 3] | inhibition at 5 µM [1, 4] | inhibition at 5 µM [2, 5] | inhibition at 5 µM [2, 6] | SMILES | inhibition at 2.5 µM ([1]; pulse 1 (tonic), read-out: percent inhibition hNav1.6, Pulse 1 (2.5 uM)) | inhibition at 2.5 µM ([1]; pulse 2 (state-dependent), read-out: percent inhibition hNav1.6, Pulse 2 (2.5 uM)) |
| --- | --- | --- | --- | --- | --- | --- |
| < 50% | < 50% | – | – | Cc1cc(-c2ccc(OC(C)C)cc2)cn2c(-c3ccc(OC(C)C)cc3)cnc12 [Example C50, 8-methyl-3,6-bis[4-(propan-2-yloxy)phenyl]imidazo[1,2-a]pyridine] | – | – |
| < 50% | > 90% | – | – | CC(C)Oc1ccc(-c2ccc3ncc(-c4ccc(OC(C)C)cc4)n3n2)cc1 [Example D10, 3,6-bis[4-(propan-2-yloxy)phenyl]imidazo[1,2-b]pyridazine] | – | – |
| < 50% | 50 to 90% | – | – | Cc1cc(OC(C)C)ccc1-c1ccc2ncc(-c3ccc(OC(C)C)cc3)n2c1 [Example C18, 6-[2-methyl-4-(propan-2-yloxy)phenyl]-3-[4-(propan-2-yloxy)phenyl]imidazo[1,2-a]pyridine] | – | – |
| < 50% | > 90% | – | – | CC(C)Oc1ccc(-c2ccc3ncc(-c4ccnc(OC(C)C)c4)n3c2)cc1 [Example C76, 6-(4-isopropoxyphenyl)-3-(2-isopropoxypyridin-4-yl)imidazo[1,2-a]pyridine] | – | – |
| < 50% | < 50% | – | – | Cc1c(-c2ccc(OC(C)C)cc2)ccc2ncc(-c3ccc(OC(C)C)cc3)n12 [Example C51, 5-methyl-3,6-bis[4-(propan-2-yloxy)phenyl]imidazo[1,2-a]pyridine] | – | – |
| < 50% | 50 to 90% | – | – | CC(C)Oc1ccc(-c2ccc3ncc(-c4ccc(OC(C)C)nc4F)n3c2)cc1 [Example C74, 3-(2-fluoro-6-isopropoxypyridin-3-yl)-6-(4-isopropoxyphenyl)imidazo[1,2-a]pyridine] | – | – |
| < 50% | 50 to 90% | – | – | CC(C)Oc1ccc(-c2ccc3ncc(-c4cnc(OC(C)C)nc4)n3c2)cc1 [Example C75, 6-(4-isopropoxyphenyl)-3-(2-isopropoxypyrimidin-5-yl)imidazo[1,2-a]pyridine] | – | – |
| < 50% | 50 to 90% | – | – | CC(C)Oc1ccc(-c2ccc3ncc(-c4cncc(OC(C)C)c4)n3c2)cc1 [Example C77, 6-(4-isopropoxyphenyl)-3-(5-isopropoxypyridin-3-yl)imidazo[1,2-a]pyridine] | – | – |
| < 50% | 50 to 90% | – | – | Cc1cc2ncc(-c3ccc(OC(C)C)cc3)n2cc1-c1ccc(OC(C)C)cc1 [Example C48, 7-methyl-3,6-bis[4-(propan-2-yloxy)phenyl]imidazo[1,2-a]pyridine] | – | – |
| < 50% | > 90% | – | – | CC(C)Oc1ccc(-c2ccc3ncc(-c4ccc(Oc5ccccc5)nc4)n3c2)cc1 [Example C88, 6-(4-isopropoxyphenyl)-3-(6-phenoxypyridin-3-yl)imidazo[1,2-a]pyridine] | – | – |
| < 50% | < 50% | – | – | Cc1cc2ncc(-c3ccc(OC(C)C)cc3)n2cc1-c1ccc(OC(C)C)c(F)c1 [Example C80, 6-(3-fluoro-4-isopropoxyphenyl)-3-(4-isopropoxyphenyl)-7-methylimidazo[1,2-a]pyridine] | – | – |
| < 50% | < 50% | – | – | CC(C)Oc1ccc(-c2cnc3ccc(-c4ccc(OC(C)C)cc4F)cn23)cc1 [Example C23, 6-[2-fluoro-4-(propan-2-yloxy)phenyl]-3-[4-(propan-2-yloxy)phenyl]imidazo[1,2-a]pyridine] | – | – |
| < 50% | > 90% | – | – | CC(C)Oc1ccc(-c2ccc3ncc(-c4ccc(OC(C)C)cc4)n3c2)cc1 [Example C2, 3,6-bis[4-(propan-2-yloxy)phenyl]imidazo[1,2-a]pyridine] | – | – |

Continued, compound first:

| SMILES | inhibition at 5 µM [1, 3] | inhibition at 5 µM [1, 4] | inhibition at 5 µM [2, 5] | inhibition at 5 µM [2, 6] | inhibition at 2.5 µM ([1]; pulse 1 (tonic), read-out: percent inhibition hNav1.6, Pulse 1 (2.5 uM)) | inhibition at 2.5 µM ([1]; pulse 2 (state-dependent), read-out: percent inhibition hNav1.6, Pulse 2 (2.5 uM)) |
| --- | --- | --- | --- | --- | --- | --- |
| CC(C)Oc1ccc(-c2cn3c(-c4ccc(OC(C)(C)C)cc4)cnc3cc2Cl)cc1 [Example C91, 3-(4-(tert-butoxy)phenyl)-7-chloro-6-(4-isopropoxyphenyl)imidazo[1,2-a]pyridine] | – | – | – | – | < 50% | < 50% |
| Cc1cc2ncc(-c3ccc(OC(C)(C)C)cc3)n2cc1-c1ccc(OC(C)C)c(F)c1 [Example C79, 3-(4-(tert-butoxy)phenyl)-6-(3-fluoro-4-isopropoxyphenyl)-7-methylimidazo[1,2-a]pyridine] | < 50% | 50 to 90% | – | – | – | – |
| CC(C)(C)Oc1ccc(-c2cnc3ccc(-c4cnc(OCC(F)(F)F)c(F)c4)cn23)cc1 [Example C86, 3-(4-(tert-butoxy)phenyl)-6-(5-fluoro-6-(2,2,2-trifluoroethoxy)pyridin-3-yl)imidazo[1,2-a]pyridine] | < 50% | > 90% | – | – | – | – |
| Cc1cc2ncc(-c3ccc(OC(C)(C)C)nc3)n2cc1-c1ccc(OC(C)C)c(F)c1 [Example C85, 3-(6-(tert-butoxy)pyridin-3-yl)-6-(3-fluoro-4-isopropoxyphenyl)-7-methylimidazo[1,2-a]pyridine] | < 50% | 50 to 90% | – | – | – | – |
| CC(C)Oc1ccc(-c2cnc3ccc(-c4ccc(OC(C)(C)C)cc4)cn23)cc1 [Example C21, 6-[4-(tert-butoxy)phenyl]-3-[4-(propan-2-yloxy)phenyl]imidazo[1,2-a]pyridine] | < 50% | > 90% | – | – | – | – |
| Cc1cc2ncc(-c3ccc(OC(C)(C)C)nc3)n2cc1-c1ccc(OC(C)C)cc1 [Example C84, 3-(6-(tert-butoxy)pyridin-3-yl)-6-(4-isopropoxyphenyl)-7-methylimidazo[1,2-a]pyridine] | < 50% | 50 to 90% | – | – | – | – |
| Cc1cc2ncc(-c3ccc(OC(C)(C)C)cc3)n2cc1-c1ccc(OC(C)C)nc1 [Example C78, 3-(4-(tert-butoxy)phenyl)-6-(6-isopropoxypyridin-3-yl)-7-methylimidazo[1,2-a]pyridine] | < 50% | > 90% | – | – | – | – |
| FC(F)(F)Oc1ccc(-c2cnc3ccc(C(F)(F)F)cn23)cc1 [Example C60, 3-(4-(trifluoromethoxy)phenyl)-6-(trifluoromethyl)imidazo[1,2-a]pyridine] | < 50% | < 50% | < 50% | < 50% | – | – |
| COc1cc(OC)cc(-c2cnc3ccc(-c4ccc(OC(F)(F)F)cc4)cn23)c1 [Example C59, 3-(3,5-dimethoxyphenyl)-6-(4-(trifluoromethoxy)phenyl)imidazo[1,2-a]pyridine] | – | – | < 50% | < 50% | – | – |
| CC(C)Oc1ccc(-c2cnc3ccc(C(F)(F)F)cn23)cc1 [Example C61, 3-(4-isopropoxyphenyl)-6-(trifluoromethyl)imidazo[1,2-a]pyridine] | < 50% | < 50% | < 50% | < 50% | – | – |
| CC(C)Oc1ccc(-c2ccc3ncc(-c4ccc(OC(C)(C)C)cc4)n3c2)cn1 [Example C83, 3-(4-(tert-butoxy)phenyl)-6-(6-isopropoxypyridin-3-yl)imidazo[1,2-a]pyridine] | < 50% | 50 to 90% | – | – | – | – |
| Cc1cc2ncc(-c3ccc(OC(C)(C)C)cc3)n2nc1-c1ccc(OC(C)C)cc1 [Example D23, 3-(4-(tert-butoxy)phenyl)-6-(4-isopropoxyphenyl)-7-methylimidazo[1,2-b]pyridazine] | < 50% | 50 to 90% | – | – | – | – |
| CC(C)Oc1ccc(-c2ccc3ncc(-c4ccc(OC(C)(C)C)cc4)n3c2)cc1F [Example C81, 3-(4-(tert-butoxy)phenyl)-6-(3-fluoro-4-isopropoxyphenyl)imidazo[1,2-a] pyridine] | < 50% | > 90% | – | – | – | – |
| CC(C)(C)Oc1ccc(-c2ccc3ncc(-c4ccc(OC(C)(C)C)cc4)n3c2)cc1 [Example C82, 3,6-bis(4-(tert-butoxy)phenyl)imidazo[1,2-a]pyridine] | < 50% | > 90% | – | – | – | – |
